Measurements published in US20200368260A1, “USE OF BENZOPYRAN COMPOUND IN PREPARATION OF PRODUCT FOR REGULATING LIPID METABOLISM AND COMPOSITION OF THE SAME” (priority 2019, published 2020).

How the values were obtained:
Assay type in all cases: cell-based, human
[1] = system: APGSL; experiment: Q-PCR, mRNA expression in oleic acid induced HepG2 cells
Excerpt: (§1) The culture, model establishment and drug treatment manners of the cells were the same as those in 1.2.4. After the completion of the treatment, the cells were collected, total RNA was extracted, then cDNA was synthesized by reverse transcription, and finally, the change of the transcription level of autophagy-related genes of the HepG2 cell in a nonalcoholic fatty liver disease model under the actions of petunidin-3-O-β-D glucoside and malvidin-3-O-β-D glucoside was detected by the real-time fluorescent quantitative PCR method, where the following method can be adopted:
(§2) 1. After the completion of drug treatment, the cells were washed with PBS for 2 times, added with 1 mL Trizol per about 1×10^7 cells, then pipetted up and down with a 1 mL pipette gun (free of RNA enzymes) until the liquid was clear and had no cell aggregate, transferred into a […] RNA-enzyme-free EP tube, mixed well by inverting up and down for 10 times, and lysed for 5 minutes at room temperature.
(§3) 1. The first strand of cDNA was synthesized by using 800 ng of total RNA as a template and a total system of 20 μL. A nuclease-free PCR tube in the ice bath was added with the following reagents:
(§4) 5. A reverse transcription reaction was carried out on a PCR machine under the following conditions: incubation at 25° C. for 10 min, cDNA synthesis at 50° C. for 30 min, and reaction termination at 85° C. for 5 min. The resulting cDNA product was stored at −20° C.
(§5) 1. According to the gene sequence provided in the literature, the primers were synthesized by Sangon Biotech (Shanghai) Co., Ltd., and the primer sequences of β-actin, APG5L, Apg7, p62 , Bcl-1 and FASN were shown in the table below:
(§6) 2. The above reaction solution was placed into a real-time quantitative PCR instrument for amplification, and the PCR reaction conditions were as shown in the table below:
(§7) For the expression of the target gene, the difference was corrected with a reference gene β-actin by a Ct value comparison method, and the changing multiple was 2^−ΔΔCt. The calculation formula was: the changing multiple=2^−ΔΔCt, where ΔΔCt=(Ct of the target gene−Ct of the reference gene) the drug treatment group−(Ct of the target gene−Ct of the reference gene) control.

[2] = system: APG7; experiment: as above; conditions: for mRNA level of Apg7: high dose group; for mRNA expression of Apg7: low and medium doses
Excerpt: as §1, §2, §3, §4, §5, §6, §7

[3] = system: Bcl-1; experiment: as above
Excerpt: as §1, §2, §3, §4, §5, §6, §7

[4] = system: p62; experiment: as above; conditions: for mRNA level of p62: high dose group; for mRNA expression of p62: low and medium doses
Excerpt: as §1, §2, §3, §4, §5, §6, §7

[5] = system: Fas; experiment: as above
Excerpt: as §1, §2, §3, §4, §5, §6, §7

[6] = system: APGSL; experiment: Western blotting, protein expression in oleic acid induced HepG2 cells; conditions: high dose group
Method: (§8) The culture, model establishment and drug treatment manners of the cells were operated according to 1.2.3. After completion, cells were collected, cytoplasmic proteins were extracted, and protein electrophoresis was conducted after quantification. Particularly the following methods were used: When the cell confluence reached 70%, 0.5 mM oleic acid was added to treat the cells for 24 h. After completion, the cells were collected and the cytoplasmic protein was extracted, and the protein electrophoresis was conducted after quantification. The electrophoresis method was as follows: After cell culture was completed, the culture plate was taken out, the culture medium in the well was discarded, the pellet was washed twice with PBS, placed onto an ice bath, and added with 100 μL of a protein lysis buffer (RIPA) (PMSF was added into the cell lysis buffer at 1:1000 within few minutes before the use, with a final concentration of 1 mM) per well. After the cells were lysed for about […], the cells were scraped off with a cell scraper, pipetted into a 1.5 mL centrifuge tube (which could be crushed with an ultrasonic cell disruptor for 3-5 times), then centrifuged at 12,000 rpm under 4° C. for 15-20 mM. The supernatant was taken and transferred into a new centrifuge tube for protein quantification or storage at −80° C. Theprotein content was determined by a BCA method, and the operation method was carried out according to the instructions of the kit. After the protein concentration was measured, the protein sample was added with a 5× loading buffer and mixed uniformly at 1:4, then subjected to water bath at 100° C. for […] (entangling with a sealing film to prevent bouncing off), and stored at 4° C. The specific operation method of protein electrophoresis was in accordance with the relevant references. Since each of the molecular weight of the target proteins was within 10-80 KDa except for FASN (the separation gel was prepared according to the following table), the separation gel concentration was selected to be 10%, and the concentration of the FASN protein separation gel was selected to be 6%. A spacer gel was formulated according to the following table, and sample loading was conducted. After completion, electrophoresis should be conducted as soon as possible, where concentration was conducted at 80 v for 30 min, and then electrophoresis was conducted at 120 v until the front edge ran to the lower edge of the separation gel, and the electrophoresis was stopped. 3. Transferring The PVDF membrane was immersed in methanol for 1 min in advance and then soaked with a 1× transfer solution for 10 min. the gel was removed, the excess gel was cut off from top and bottom and left and right, and then the gel was assembled in the order of filter paper-gel-membrane-filter paper from a blackboard to a whiteboard, the bubbles were removed from therebetween, and the assembly was clamped by a clip, and placed in a transfer slot with the black side to black side, and white side to white side. After the completion of the transfer, the PVDF membrane was blocked with a TB ST room-temperature shaker containing 5% skim milk powder for 1 hour. The primary antibody was diluted with TBST containing 5% BSA or 5% skim milk powder (see the antibody instructions for specific dilution multiple). After the end of blocking, the PVDF membrane was incubated with the well-diluted primary antibody overnight at 4° C.

[7] = system: APG7; experiment: as above
Method: as §8

Compound | mRNA level of APGSL [1] | mRNA level of Apg7 [2] | mRNA expression of Apg7 [2] | mRNA expression level of Bcl-1 [3] | mRNA level of p62 [4] | mRNA expression of p62 [4] | mRNA expression level of Fas [5] | protein expression of APGSL [6] | protein expression of APG7 ([7]; high dose group) | protein expression of APG7 ([7]; low doses)
COc1cc(-c2[o+]c3cc(O)cc(O)c3cc2O[C@@H]2O[C@H](CO)[C@@H](O)[C@H](O)[C@H]2O)cc(OC)c1O [malvidin-3-O-β-D glucoside] | up-regulate | up-regulate | reduced | significantly decrease | up-regulate | reduced | significantly decrease | inhibition trend | inhibition trend | significant effect
COc1cc(-c2[o+]c3cc(O)cc(O)c3cc2O[C@@H]2O[C@H](CO)[C@@H](O)[C@H](O)[C@H]2O)cc(O)c1O [petunidin-3-O-β-D glucoside] | up-regulate | up-regulate | reduced | significantly decrease | up-regulate | reduced | significantly decrease | inhibition trend | inhibition trend | significant effect
